Values of other authors, collected in US20170312254A1, “Low Dose Pharmaceutical Composition” (Cipla Limited, priority 2010, published 2017).

Tests used:
[1] = premarketing studies

Elevations in liver transaminases, fraction of patients [1]: ⅓
Lipid solubility: highly lipid-soluble
Water solubility: highly water insoluble
Solubility in lower pH (lower pH): practically insoluble
Solubility at pH 6.8 (pH 6.8, until buffer strength is altered): insoluble
Compound: O=C(O)c1ccc(-n2nc(-c3ccccc3O)nc2-c2ccccc2O)cc1 [Deferasirox, 4-[3,5-bis (2-hydroxyphenyl)-[1,2, 4]triazol-1-yl] enzoic acid]
